# Measured values: US20100041760A1, “MONOARYL AMINOTETRALINES” (priority 2008, published 2010)
# Test system: DK-PGD2-induced IL-13 production in T helper type 2 (Th2) cells
# Assay: DK-PGD2-Induced IL-13 Production Assay in Th2 Cells
# Type: cell-based
# Settings: human Th2 cells; 500 nM DK-PGD2; 4 hrs at 37° C.; 10% human AB serum; ELISA; read-out: IC50 value, inhibition of IL-13 production
# Experimental: Cultures of Th2 cells were established from blood of healthy human volunteers according to the following procedure. Peripheral blood mononuclear cells (PBMC) were first isolated from 50 mL of fresh blood by Ficoll-Hypaque density gradient centrifugation, followed by CD4^+ cell purification using a CD4^+ T Cell Isolation Kit II (from Miltenyi Biotec Inc.). The CD4^+ T cells were then differentiated to Th2 cells by culturing the cells in X-VIVO 15® medium (from Cambrex BioScience Walkersville Inc.) containing 10% human AB serum (serum of blood type AB from Invitrogen Corporation), 50 U/mL of recombinant human interleukin-2 (rhIL-2) (from PeproTech Inc.) and 100 ng/mL of recombinant human interleukin-4 (rhIL-4) (from PeproTech Inc.) for 7 days. The Th2 cells were isolated using a CD294 (CRTH2) MicroBead Kit (from Miltenyi Biotec Inc.) and amplified in X-VIVO 15® medium containing 10% human AB serum and 50 U/mL of rhIL-2 for 2 to 5 weeks. In general, 70% to 80% of the Th2 cells used in the assay are CRTH2-positive when analyzed by fluorescence-activated cell sorting using the BM16 antibody (as previously described) conjugated to phycoerythrin (PE).
# To determine cellular inhibitory potency, compounds at various concentrations were incubated with 2.5×10^4 Th2 cells and 500 nM DK-PGD2 for 4 hrs at 37° C. in 200 μL of X-VIVO 15® medium containing 10% human AB serum. […] The spontaneous production of IL-13 by Th2 cells was determined in the absence of DK-PGD2 stimulation and the value was subtracted from that in the presence of each compound for percent inhibition and IC50 calculations.
# The percent inhibition of interleukin 13 (IL-13) production for a compound at various concentrations was calculated according to the following formula, [1-(IL-13 production in the presence of compound)/(IL-13 production in the presence of 0.15% DMSO)]×100. The IC50 value, defined as the concentration of a compound that is required for 50% inhibition of IL-13 production, was calculated by fitting the percent inhibition data for 7 concentrations to a sigmoidal dose-response (4 parameter logistic) model in the XLfit® software Excel add-in program [ID Business Solutions Ltd., model 205, where F(x)=(A+(B−A)/(1+((C/x)̂D)))].
row,IC50,Compound
1,4.65 µM,"CN([C@@H]1CCCc2c(OCC(=O)O)cccc21)S(=O)(=O)c1cc(F)cc(C(F)(F)F)c1 [Example 1-1, {(R)-5-[(3-fluoro-5-trifluoromethyl-benzenesulfonyl)-methyl-amino]-5,6,7,8-tetrahydro-naphthalen-1-yloxy}-acetic acid]"
2,3.01 µM,"CCN(CC)c1cc(C(F)(F)F)cc(S(=O)(=O)N(C)[C@@H]2CCCc3c(OCC(=O)O)cccc32)c1 [Example 4-2, {(R)-5-[(3-diethylamino-5-trifluoromethyl-benzenesulfonyl)-methyl-amino]-5,6,7,8-tetrahydro-naphthalen-1-yloxy}-acetic acid]"
3,4.84 µM,"CCOc1cc(C(F)(F)F)cc(S(=O)(=O)N(C)[C@@H]2CCCc3c(OCC(=O)O)cccc32)c1 [Example 9-2, {(R)-5-[(3-ethoxy-5-trifluoromethyl-benzenesulfonyl)-methyl-amino]-5,6,7,8-tetrahydro-naphthalen-1-yloxy}-acetic acid]"
4,5.09 µM,"CN([C@@H]1CCCc2c(OCC(=O)O)cccc21)S(=O)(=O)c1cc(OC2CCCC2)cc(C(F)(F)F)c1 [Example 9-3, {(R)-5-[(3-cyclopentyloxy-5-trifluoromethyl-benzenesulfonyl)-methyl-amino]-5,6,7,8-tetrahydro-naphthalen-1-yloxy}-acetic acid]"
